In patent US9850256B2, “Antibacterial basic biaromatic derivatives with aminoalkoxy substitution” (priority 2014, dated 2017) one finds MIC data, which are given here for 15 compounds.

The term MIC denotes the lowest concentration found to suppress growth.

What all share (assay): Bacterial growth minimal inhibitory concentration (microdilution, cation-adjusted Mueller-Hinton Broth)
Background: In broth dilution the organism is exposed to a series of concentrations in liquid medium.

For one assay, the system named is S. aureus A798. The assay is classed as cell-based, Staphylococcus aureus. Conditions: Staphylococcus aureus, A798; multiply-resistant strain (methicillin- and quinolone-resistant). The procedure, abridged:
(§1)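 Broth microdilution in cation-adjusted Mueller-Hinton Broth per CLSI M7-A7; MICs in mg/L. S. aureus A798 is methicillin- and quinolone-resistant, K. pneumoniae T6474 penicillin-, cephalosporin- and quinolone-resistant; E. coli ATCC25922 and P. aeruginosa ATCC 27853 are quinolone-sensitive.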

A further assay relates to E. coli ATCC25922. It is filed as cell-based. Conditions: Escherichia coli, ATCC25922; quinolone-sensitive strain. Summed up:
as §1

The next assay relates to K. pneumoniae T6474. The assay is classed as cell-based, Klebsiella pneumoniae. The following applies: Klebsiella pneumoniae, T6474; multiply-resistant strain (penicillin-, cephalosporin- and quinolone-resistant). The procedure, abridged: as §1
The next assay deals with P. aeruginosa ATCC 27853. The assay is classed as cell-based, Pseudomonas aeruginosa. The following applies: Pseudomonas aeruginosa, ATCC27853; quinolone-sensitive strain. The procedure, abridged:
as §1

Converted amounts (≈) assume the structure as drawn. Where only a bound is given, the exact number is not on record here.

`CN(C)CCOc1cnnc(-c2cccc(CNCC[C@H]3CN(c4ccc5c(n4)NC(=O)CO5)C(=O)O3)c2)c1` [Example 10, 6-[(S)-5-(2-{3-[5-(2-dimethylamino-ethoxy)-pyridazin-3-yl]-benzylamino}-ethyl)-2-oxo-oxazolidin-3-yl]-4H-pyrido[3,2-b][1,4]oxazin-3-one]: the MIC with S. aureus A798 is 8 µg/mL (≈ 15 µM); with E. coli ATCC25922 it was 2 µg/mL (≈ 3.75 µM); in the assay on K. pneumoniae T6474 it was 4 µg/mL (≈ 7.5 µM); in the assay on P. aeruginosa ATCC 27853, 4 µg/mL (≈ 7.5 µM).
Take `O=C1COc2ccc(N3C[C@H](CCNCc4cccc(-c5cc(O[C@H]6CCNC6)cnn5)c4)OC3=O)nc2N1` [Example $181, 6-[(S)-2-oxo-5-(2-{3-[5-((S)-pyrrolidin-3-yloxy)-pyridazin-3-yl]-benzylamino}-ethyl)-oxazolidin-3-yl]-4H-pyrido[3,2-b][1,4]oxazin-3-one]: the MIC is 16 µg/mL (≈ 30.1 µM) in the assay with S. aureus A798, 16 µg/mL (≈ 30.1 µM) against E. coli ATCC25922, over 16 µg/mL against K. pneumoniae T6474 and 4 µg/mL (≈ 7.52 µM) against P. aeruginosa ATCC 27853.
In the case of `CN1CCC[C@H]1COc1cccc(-c2cccc(CNCC[C@H]3CN(c4ccc5c(n4)NC(=O)CO5)C(=O)O3)c2)n1` [Example $130, 6-[(S)-5-(2-{3-[6-((S)-1-methyl-pyrrolidin-2-ylmethoxy)-pyridin-2-yl]-benzylamino}-ethyl)-2-oxo-oxazolidin-3-yl]-4H-pyrido[3,2-b][1,4]oxazin-3-one], the MIC in the assay with S. aureus A798 amounted to 0.25 µg/mL (≈ 0.448 µM); in the assay on E. coli ATCC25922, 1 µg/mL (≈ 1.79 µM); with K. pneumoniae T6474, 2 µg/mL (≈ 3.58 µM); against P. aeruginosa ATCC 27853, 4 µg/mL (≈ 7.16 µM).
Taken in the same sequence, the figures for `CN1CCC(Oc2cccc(-c3cccc(CNCC[C@H]4CN(c5ccc6c(n5)NC(=O)CO6)C(=O)O4)c3)n2)CC1` [Example $127, 6-[(S)-5-(2-{3-[6-(1-methyl-piperidin-4-yloxy)-pyridin-2-yl]-benzylamino}-ethyl)-2-oxo-oxazolidin-3-yl]-4H-pyrido[3,2-b][1,4]oxazin-3-one] were 1 µg/mL (≈ 1.79 µM), 2 µg/mL (≈ 3.58 µM), 8 µg/mL (≈ 14.3 µM) and 4 µg/mL (≈ 7.16 µM).
For `CN1CC[C@H](Oc2cncc(-c3cncc(CNCC[C@H]4CN(c5ccc6c(n5)NC(=O)CO6)C(=O)O4)c3)n2)C1` [Example $146, 6-{(S)-5-[2-({5-[6-((S)-1-methyl-pyrrolidin-3-yloxy)-pyrazin-2-yl]-pyridin-3-ylmethyl}-amino)-ethyl]-2-oxo-oxazolidin-3-yl}-4H-pyrido[3,2-b][1,4]oxazin-3-one] the same measures were 4 µg/mL (≈ 7.32 µM), 2 µg/mL (≈ 3.66 µM), 4 µg/mL (≈ 7.32 µM) and 4 µg/mL (≈ 7.32 µM).
`CN1CC[C@H](Oc2cccc(-c3cccc(CNCC[C@H]4CN(c5ccc6c(c5)NC(=O)CS6)C(=O)O4)c3)n2)C1` [Example $167, 6-[(S)-5-(2-{3-[6-((S)-1-methyl-pyrrolidin-3-yloxy)-pyridin-2-yl]-benzylamino}-ethyl)-2-oxo-oxazolidin-3-yl]-4H-benzo[1,4]thiazin-3-one]: the MIC came out at 0.25 µg/mL (≈ 0.447 µM) in the assay on S. aureus A798, 1 µg/mL (≈ 1.79 µM) against E. coli ATCC25922, 1 µg/mL (≈ 1.79 µM) against K. pneumoniae T6474 and 1 µg/mL (≈ 1.79 µM) in the assay on P. aeruginosa ATCC 27853.
As to `COc1cc(O[C@H]2CCN(C)C2)nc(-c2cccc(CNCC[C@H]3CN(c4ccc5c(n4)NC(=O)CO5)C(=O)O3)c2)c1` [Example $136, 6-[(S)-5-(2-{3-[4-methoxy-6-((S)-1-methyl-pyrrolidin-3-yloxy)-pyridin-2-yl]-benzylamino}-ethyl)-2-oxo-oxazolidin-3-yl]-4H-pyrido[3,2-b][1,4]oxazin-3-one], the MIC with S. aureus A798 is 0.25 µg/mL (≈ 0.435 µM); in the assay on E. coli ATCC25922, 1 µg/mL (≈ 1.74 µM); against K. pneumoniae T6474, 2 µg/mL (≈ 3.48 µM); in the assay on P. aeruginosa ATCC 27853, 2 µg/mL (≈ 3.48 µM).
With `NCCCCCOc1cccc(-c2cccc(CNCC[C@H]3CN(c4ccc5c(n4)NC(=O)CO5)C(=O)O3)c2)n1` [Example 20, 6-[(S)-5-(2-{3-[6-(5-amino-pentyloxy)-pyridin-2-yl]-benzylamino}-ethyl)-2-oxo-oxazolidin-3-yl]-4H-pyrido[3,2-b][1,4]oxazin-3-one], the MIC against S. aureus A798 came out at 0.5 µg/mL (≈ 0.915 µM); against E. coli ATCC25922, 2 µg/mL (≈ 3.66 µM); against K. pneumoniae T6474, 8 µg/mL (≈ 14.6 µM); against P. aeruginosa ATCC 27853, 2 µg/mL (≈ 3.66 µM).
Take `NCCOc1cc(-c2cccc(CNCC[C@H]3CN(c4ccc5c(n4)NC(=O)CO5)C(=O)O3)c2)ccn1.O=CO` [Example 19, 6-[(S)-5-(2-{3-[2-(2-amino-ethoxy)-pyridin-4-yl]-benzylamino}-ethyl)-2-oxo-oxazolidin-3-yl]-4H-pyrido[3,2-b][1,4]oxazin-3-one formate]: the MIC against S. aureus A798 was found to be 8 µg/mL; in the assay with E. coli ATCC25922, 1 µg/mL; in the assay on K. pneumoniae T6474, 4 µg/mL; in the assay with P. aeruginosa ATCC 27853 it was 1 µg/mL.
Turning to `NCCOc1ccnc(-c2cccc(CNCC[C@H]3CN(c4ccc5c(n4)NC(=O)CO5)C(=O)O3)c2)c1` [Example $154, 6-[(S)-5-(2-{3-[4-(2-amino-ethoxy)-pyridin-2-yl]-benzylamino}-ethyl)-2-oxo-oxazolidin-3-yl]-4H-pyrido[3,2-b][1,4]oxazin-3-one], the MIC in the assay on S. aureus A798 is 4 µg/mL (≈ 7.93 µM); against E. coli ATCC25922 it was 1 µg/mL (≈ 1.98 µM); in the assay on K. pneumoniae T6474, 4 µg/mL (≈ 7.93 µM); against P. aeruginosa ATCC 27853, 0.5 µg/mL (≈ 0.991 µM).
`O=C1COc2ccc(N3C[C@H](CCNCc4cccc(-c5cc(OC[C@@H]6CCN6)cnn5)c4)OC3=O)nc2N1` [Example $182, 6-[(S)-5-(2-{3-[5-((S)-1-azetidin-2-ylmethoxy)-pyridazin-3-yl]-benzylamino}-ethyl)-2-oxo-oxazolidin-3-yl]-4H-pyrido[3,2-b][1,4]oxazin-3-one]: the minimal inhibitory concentration (MIC) against S. aureus A798 came to 8 µg/mL (≈ 15 µM); with E. coli ATCC25922, 16 µg/mL (≈ 30.1 µM); against K. pneumoniae T6474, 16 µg/mL (≈ 30.1 µM); in the assay with P. aeruginosa ATCC 27853, 16 µg/mL (≈ 30.1 µM).
For the compound `O=C1COc2ccc(N3C[C@H](CCNCc4cccc(-c5cc(OC6CNC6)cnn5)c4)OC3=O)nc2N1` [Example $114, 6-[(S)-5-(2-{3-[5-(azetidin-3-yloxy)-pyridazin-3-yl]-benzylamino}-ethyl)-2-oxo-oxazolidin-3-yl]-4H-pyrido[3,2-b][1,4]oxazin-3-one], the MIC was found to be 16 µg/mL (≈ 30.9 µM) against S. aureus A798, 4 µg/mL (≈ 7.73 µM) in the assay with E. coli ATCC25922, 8 µg/mL (≈ 15.5 µM) against K. pneumoniae T6474 and 1 µg/mL (≈ 1.93 µM) in the assay with P. aeruginosa ATCC 27853.
Taken in the same sequence, the figures for `O=C1COc2ccc(N3C[C@H](CCNCc4cccc(-c5cccc(OC[C@@H]6CCN6)c5)c4)OC3=O)nc2N1` [Example $101, 6-[(S)-5-(2-{[3′-((S)-1-azetidin-2-ylmethoxy)-biphenyl-3-ylmethyl]-amino}-ethyl)-2-oxo-oxazolidin-3-yl]-4H-pyrido[3,2-b][1,4]oxazin-3-one] were 2 µg/mL (≈ 3.78 µM), 1 µg/mL (≈ 1.89 µM), 2 µg/mL (≈ 3.78 µM) and 1 µg/mL (≈ 1.89 µM).
As for `C[C@H]1[C@@H](Oc2cccc(-c3cccc(CNCC[C@H]4CN(c5ccc6c(n5)NC(=O)CO6)C(=O)O4)c3)n2)CCN1C` (relative stereo) [Example $176, 6-[(S)-5-(2-{3-[6-((2S*,3S*)-1,2-dimethyl-pyrrolidin-3-yloxy)-pyridin-2-yl]-benzylamino}-ethyl)-2-oxo-oxazolidin-3-yl]-4H-pyrido[3,2-b][1,4]oxazin-3-one], the MIC stood at 0.25 µg/mL (≈ 0.448 µM) in the assay on S. aureus A798, 2 µg/mL (≈ 3.58 µM) against E. coli ATCC25922, 2 µg/mL (≈ 3.58 µM) in the assay with K. pneumoniae T6474 and 2 µg/mL (≈ 3.58 µM) against P. aeruginosa ATCC 27853.
On to `CN1CC(Oc2cnnc(-c3cccc(CNCC[C@H]4CN(c5ccc6c(n5)NC(=O)CO6)C(=O)O4)c3)c2)C1` [Example $174, 6-[(S)-5-(2-{3-[5-(1-methyl-azetidin-3-yloxy)-pyridazin-3-yl]-benzylamino}-ethyl)-2-oxo-oxazolidin-3-yl]-4H-pyrido[3,2-b][1,4]oxazin-3-one], for which the MIC with S. aureus A798 is 2 µg/mL (≈ 3.76 µM); with E. coli ATCC25922, 1 µg/mL (≈ 1.88 µM); against K. pneumoniae T6474, 2 µg/mL (≈ 3.76 µM); in the assay with P. aeruginosa ATCC 27853, 2 µg/mL (≈ 3.76 µM).
